The text below walks through data of patent US20250340846A1, “PATIENT-DERIVED CELL-CONTAINING DROPLETS ENABLE CLINICAL PRECISION ONCOLOGY” (Xilis, Inc., priority 2022, published 2025).

Experiment [1] relates to metastatic CRC patient-derived MOS. Kind of experiment: Oxaliplatin drug testing of MOS from CRC core biopsies (Cell Titer Glo). The experiment is classed as cell-based, human. To be noted: 1 μM and 10 μM, cut-off 50% killing. As for the experimental part:
(§1) Drug High-Throughput Screening: Automated liquid handling was provided by the Echo Acoustic Dispenser (Labcyte) for drug administration or Well mate (Thermo Fisher) for cell plating, and assays were performed using a Clariosean plate reader (BMG Labtech). Immediately prior to cell plating, 384 well plates were stamped with 119 FDA-approved drug compounds at a final concentration of 1 μM. The compound library (Approved Oncology Set VI) was provided by the NCI Developmental Therapeutics Program (https://dtp.cancer.gov/). MOS were plated in these drug pre-coated plates at 100 MOS/well with each MOS containing 30 cells/droplet. Cell viabilities were assessed via CellTiter-Glo Luminescent Cell Viability Assay (Promega, USA) 72 hours after cell plating. Percent cytotoxicity was quantified using the following formula: 100*[1-(average CellTiterGlo^drug/average CellTiterGlo^control)].
A prospective clinical study was then designed and conducted. Core biopsies (18-gauge) were obtained from seven additional patients presenting with metastatic CRC, MOS were generated, and drug testing was performed (FIGS. 1H and 1I). MOS (30 tumor cells per MOS) were generated and responses to oxaliplatin were tested within 13 days (9.9 days on average) from time of biopsy for all eight biopsy samples, with a success rate of 100% (8/8) (TABLE 2). Given the limited tissue volume, dosages of 1 μM and 10 μM were selected based on studies disclosed elsewhere (Vlachogiannis et al., Science 359, 920-926, 2018, Ooft et al., Science Translational Med 11, 2019; Ganesh et al., Nat Med 25, 1607-1614, 2019; and Yao et al., Trends Immunol 41, 652-664, 2020). The same cut-off as measured via Cell Titer Glo was used. Among the eight patients, four had oxaliplatin-sensitive MOS and four had oxaliplatin-resistant MOS (FIG. 1J).
A general note: ATP-based viability assays read luminescence as a measure of living cells.

Experiment [2] has as its system MOS from metastatic rectal cancer biopsy. As to the kind of experiment: High-throughput drug screen on patient-derived MOS, CellTiter-Glo viability. The experiment is classed as cell-based, human. Particulars: 1 μM, 72 hours, 30 tumor cells per MOS. Here is the method:
as §1
Since clinical treatment decisions are often made within 10-14 days of diagnosis, an ideal diagnostic assay would give results within 14 days and use minimal tissue (e.g., core biopsies) to predict clinical outcome. In an initial study, a biopsy was obtained from a patient presenting with metastatic rectal cancer, and MOS (30 tumor cells per MOS) were established within 8 days of biopsy. […]

Experiment [3] relates to CRC MOS lines resistant to oxaliplatin. As to the kind of experiment: Caspase 3/7 fluorescence imaging of oxaliplatin-treated CRC MOS. Particulars: two oxaliplatin-resistant CRC MOS lines (CRC1282, CRC1297), 20 cells per MOS. The experiment is classed as cell-based, human. Here is the method:
Cell death for each MOS was measured by imaging the Caspase 3/7 fluorescence signal and normalizing it by the cell surface area inside each MOS.

For the next experiment, the system named is metastatic CRC. As to the kind of experiment: Clinical outcome of patients on oxaliplatin-based therapy (CT scan, time on treatment). The class given is in vivo, human. From the text:
All eight patients received oxaliplatin-based therapy per usual treatment guidelines. Patient outcomes were subsequently evaluated by CT scan before and after oxaliplatin treatment (FIGS. 2B-2H), and time-on-treatment was compared to MOS oxaliplatin sensitivity.

The test system of experiment [4] is MOS generated from NSCLC patient samples. As to the kind of experiment: IO assay, Incucyte Annexin V, MOS with tumor-resident immune cells. Particulars: 10 μg/mL, day 4 MOS, 30 tumor cells per MOS. The experiment is classed as cell-based, human. As for the experimental part: (§2) IO assay and Incucyte live cell imaging: MOS generated from primary tumor tissue were plated into 96-well plates with a density of 30-50 MOS per well supplied with culture medium without Y compound. Day 3 or day 4 MOS were treated with ESK1*, DP47 or Nivolumab for at least 3 days and imaged in Incucyte during the treatment. When performing immune cell potency assay, pre-activated PBMCs or matched TILs were stained with Cytolight Rapid red dye following manufacturer instructions. Briefly, Cytolight Rapid Red dye in one vial was diluted with 20 μl DMSO and further diluted 10-fold in PBS. PBMC or TILs were incubated at 37° C. with 5 μl diluted Cytolight Red dye (500X) in PBS for 25 minutes. After one wash with PBS, PBMC or TILs were counted and resuspended into wells containing MOS and culture medium at an effector: target ratio of 5:1 or 10:1. Annexin V green dye, Caspase 3/7 green dye, or Cytotox green dye was added into each well following manufacturer instruction. Plates were loaded into Incucyte S3 and images were taken every 2 hours for 4-5 days.
(§3) MOS generated from NSCLC patient samples at a density of 30 tumor cells per MOS formed tumorsphere-like structures in the presence of tumor-resident immune cells. MOS (day 4) were then treated with anti-PD1 therapy nivolumab at 10 μg/mL and Annexin V was used to evaluate cell apoptosis. […]

Experiment [5] concerns MOS derived from a kidney cancer patient. As to the kind of experiment: IO assay, Incucyte Annexin V, kidney tumor MOS. The experiment is classed as cell-based, human. To be noted: nivolumab alone, day 3 MOS. As for the experimental part: as §2, §3
The subject of the next experiment is lung tumor MOS. Kind of experiment: IO assay with immunotherapy and MHC block, matched TILs. The class given is cell-based, human. As for the experimental part: IO assay with immunotherapy and MHC block: Lung tumor MOS were incubated with anti-MHC I/II antibodies (W6/32; Tu39, Cat #361702, Biolegend) at a concentration of 20 μg/mL for 45 minutes at 37° C. before seeding into a 96-well plate at a density of 30-50 MOS per well supplied with lung tumor culture medium without Y-27632. Non-MHC-blocked MOS were used as controls. Matched TILs were added to each well at a 5:1 effector: target ratio. Nivolumab was added to wells at a working concentration of 10 μg/mL. The CD2/CD3/CD28 T cell activator reagent was added at a working concentration of 25 μl/mL. Annexin V was added into each well following the manufacturer's instructions.
Adjunctive therapies were explored by first combining PD-1 blockade (nivolumab) with autologous TILs against matched lung tumor MOS. […] TCB were then combined with autologous TILs or allogeneic PBMCs to treat lung cancer MOS (20 cells per MOS) expressing HLA-A2. ESK1* enhanced both TIL- and PBMC-induced tumor cell death compared to DP47 (FIGS. 11I, 11J, 12J, and 12K). Annexin V signals were higher in MOS treated with ESK1* vs. DP47 in all seven lung cancer samples (FIG. 11K). […] Heterogeneity in drug response between MOS from the same patient was observed and quantified (FIGS. 12K and 12L).

Consider `O=C1[O][Pt]2([NH][C@@H]3CCCC[C@H]3[NH]2)[O]C1=O` [oxaliplatin], for which the “MOS Prediction” value in experiment [1] (patient CRC-MOS-001) is “Sensitive”; in experiment [1] (patient CRC-MOS-002), “Resistance”; in experiment [1] (patient CRC-MOS-003), “Sensitive”; in experiment [1] (patient CRC-MOS-004), “Resistance”; in experiment [1] (patient CRC-MOS-005), “Sensitive”; in experiment [1] (patient CRC-MOS-006) it was “Resistance”. Besides, the entries for the “MOS Prediction” value in experiment [1] (patient CRC-MOS-007) and in experiment [1] (patient CRC-MOS-008) were “Sensitive” and “Resistance”, respectively. Moreover, the “% killing” value in experiment [2] is recorded as greater than 50%. Besides, the “cell killing, Caspase 3/7 signal normalized by cell surface area” value in experiment [3] was “only the highest dosages induced significant cell killing”. Also, in the experiment on metastatic CRC (metastatic rectal cancer patient, 6 months later), the “patient tumor response to oxaliplatin-based therapy” value was “still responded”. Besides, the “Clinical Outcome” value in the experiment with metastatic CRC (patient CRC-MOS-001, oxaliplatin-based therapy) is on record as “Response”; in the experiment with metastatic CRC (patient CRC-MOS-002, oxaliplatin-based therapy), “Response”; with metastatic CRC (patient CRC-MOS-003, oxaliplatin-based therapy), “Response”; in the experiment on metastatic CRC (patient CRC-MOS-004, oxaliplatin-based therapy), “No Response”; with metastatic CRC (patient CRC-MOS-005, oxaliplatin-based therapy) it was “Response”; in the experiment on metastatic CRC (patient CRC-MOS-006, oxaliplatin-based therapy), “No Response”. Also, the “Clinical Outcome” value in the experiment on metastatic CRC (patient CRC-MOS-007, oxaliplatin-based therapy) was “No Response”; in the experiment on metastatic CRC (patient CRC-MOS-008, oxaliplatin-based therapy), “No Response”. The “Response Time” value was 46 wks in the experiment on metastatic CRC (patient CRC-MOS-001, time on oxaliplatin-based treatment); 28 wks in the experiment on metastatic CRC (patient CRC-MOS-002, time on oxaliplatin-based treatment); 38 wks in the experiment on metastatic CRC (patient CRC-MOS-003, time on oxaliplatin-based treatment); 8 wks with metastatic CRC (patient CRC-MOS-004, time on oxaliplatin-based treatment); 36 wks in the experiment on metastatic CRC (patient CRC-MOS-005, time on oxaliplatin-based treatment); 3 wks with metastatic CRC (patient CRC-MOS-006, time on oxaliplatin-based treatment). The “Response Time” value with metastatic CRC (patient CRC-MOS-007, time on oxaliplatin-based treatment) was 24 wks; in the experiment on metastatic CRC (patient CRC-MOS-008, time on oxaliplatin-based treatment), 6 wks.
Consider nivolumab, for which, in experiment [4], the “death of tumorspheres within MOS (Annexin V)” value was “induced death in the tumorspheres”. In addition, the “killing of tumorspheres inside MOS (Annexin V)” value in experiment [5] is “did not enhance killing”. Further, in the experiment on lung tumor MOS (10 μg/mL with autologous TILs, effector:target 5:1), the “TIL-mediated killing inside MOS (Annexin V)” value was “enhanced TIL-mediated killing”. Besides, in the experiment on lung tumor MOS (anti-MHC I/II antibodies 20 μg/mL, autologous TILs), the “TIL-mediated killing inside MOS (Annexin V) with MHC block” value was “abrogated”.
`CCc1c2c(nc3ccc(OC(=O)N4CCC(N5CCCCC5)CC4)cc13)-c1cc3c(c(=O)n1C2)COC(=O)[C@]3(O)CC` [irinotecan]: the “% killing” value in experiment [2] was less than 50%.
